Assay results from paper PMC6980506, “Comparative pharmacokinetics and pharmacodynamics of the advanced Retinol-Binding Protein 4 antagonist in dog and cynomolgus monkey” (PLoS ONE, 2020).

Legend:
[1] = test system: cytochrome (CYP) P450 enzymes; parameters: method as in PMID 26181715; details: all standard CYP P450 enzymes; read-out: CYP inhibition IC50; cited from earlier work
[2] = Metabolic stability in cynomolgus monkey liver microsomes; format: in vitro ADME; details: male, pH 7.4, Cyno liver microsomes, 1 mg/mL, read-out: Microsomal Stability (% Remaining at 30 min)
Protocol: All measurements were done in duplicate. Pooled mixed gender human donor microsomes, male beagle dog microsomes and male cynomolgus monkey were obtained from BioIVT (Baltimore, MD). […] A mixture containing 50 mM potassium phosphate buffer pH 7.4 and 1 mg/mL liver microsomes was pre-warmed for 10 min at 37°C in a shaking water bath, followed by the addition of test compound. Final DMSO concentration in the reaction mix was 0.1%. […] The final volume of the reaction mixture was 800 μL, containing 1 mg/mL liver microsomes, and 1 μM test compound. Aliquots (100 μL) of reaction mixtures were removed from the incubation plate at pre-defined timepoints and mixed with 150 μL of ice-cold acetonitrile, incubated on ice for 15 min, and samples were centrifuged (3,600 rpm, 10 min, 4°C) to precipitate protein. The supernatants were diluted 1:1 (v/v) with water containing the internal standard and subjected to the LC/MS analysis.

[3] = parameters: method as in PMID 26181715; details: rat liver microsomes; cited from earlier work

Cc1cc(C(=O)O)nc(N2C[C@H]3C[C@@H](c4ccccc4C(F)(F)F)C[C@H]3C2)n1 [BPN-14136]
IC50 [1]: > 34 µM | remaining at 0.5 h, 1 μM [2]: 95% | stability in liver microsomes, % remaining at 30 min [3]: > 90%
